# Experimental data published in paper PMC12122562, “Phase 1 studies of the indenoisoquinolines LMP776 and LMP744 in patients with solid tumors and lymphomas” (Cancer Chemotherapy and Pharmacology, 2025).
# Several values for one entry are separate records, joined by “and”; a condition that tells them apart may be missing. Identical values can stand only once. Entries after “also recorded” stand apart in the source; their conditions may differ.
# System: patients with advanced, refractory solid tumors or lymphomas
# Assay: Phase 1 trial of LMP744 (NCT03030417): safety, MTD, adverse events (CTCAE v4.03/v5.0)
# Type: in vivo, human
# Description: The primary objectives of each study included establishing safety, tolerability, MTD, and recommended phase 2 dose (RP2D) of LMP776 and LMP744 as single agents. The LMP744 study included evaluation of tumor pharmacodynamics as an exploratory objective. Both trials were opened at the National Cancer Institute’s (NCI) Developmental Therapeutics Clinic, and the LMP744 trial was also opened at the University of Pittsburgh Hillman Cancer Center. Both trials used an accelerated dose escalation designs (Simon design 4 for LMP776, Simon design 3 for LMP744) to determine the MTD [30]. Dose levels are listed in Supplementary Table 1. Once the MTD was determined, additional patients were enrolled at that DL in an expansion cohort to evaluate pharmacodynamic changes as described below. LMP776 and LMP744 were administered intravenously through a central line via a 1-h infusion on days 1–5 (QDx5) in 28-day cycles. Both agents were supplied by the NCI Division of Cancer Treatment and Diagnosis (DCTD). The studies were approved by the NIH Institutional Review Board and conducted in accordance with the Declaration of Helsinki.
# Patients were enrolled in either NCT01051635 evaluating LMP776 or NCT03030417 evaluating LMP744; these trials were conducted sequentially. Both trials required that patients be ≥ 18 years of age with solid tumors or lymphomas refractory to other treatments. Patients were required to have adequate performance status (Eastern Cooperative Oncology Group [ECOG] performance status ≤ 2), bone marrow function, and organ function as described in the Supplementary Methods. Patients in expansion phases at the MTD were required to have disease amenable to biopsy collection and be willing to undergo research biopsies. All patients provided written informed consent.
# Tumor responses were evaluated by serial CT scans according to RECIST v1.1 criteria. CT scans were performed every other cycle during the first year, then every 3 cycles after the first year. Toxicities associated with LMP776 were evaluated according to criteria specified in CTCAE version 4.0; toxicities associated with LMP744 were evaluated according to the criteria specified in CTCAE version 4.03 (on or before March 31, 2018) or version 5.0 (on or after April 1, 2018). Criteria for all versions can be found at https://ctep.cancer.gov/protocolDevelopment/electronic_applications/ctc.htm. Any patient who received a dose of either agent was considered eligible for toxicity evaluation.
# [1] = all DLs, highest grade per patient
compound,measurement,setting,value
COc1cc2c3c(n(CCCNCCO)c(=O)c2cc1OC)-c1cc2c(cc1C3=O)OCO2 [LMP744],Grade 3 non-hematologic DLTs,DL7 (260 mg/m^2/day),"elevated ALT, AST, and GGT in one patient; also recorded: nausea, vomiting, and dehydration"
same,Maximum tolerated dose (MTD),"IV QDx5, 28-day cycles (DL6)",190 mg/m^2/day
same,"Anemia, grade ≥ 2, prevalence",across all DLs,36%
same,"Fatigue, grade ≥ 2, prevalence",across all DLs,22%
same,"Lymphopenia, grade ≥ 2, prevalence",across all DLs,39%
same,"Alanine aminotransferase increased, grade ≥ 2, Total (%)",all DLs,2 (6)
same,"Alkaline phosphatase increased, grade ≥ 2, Total (%)",all DLs,3 (9)
same,"Anorexia, grade ≥ 2, Total (%)",all DLs,2 (6)
same,"Aspartate aminotransferase increased, grade ≥ 2, Total (%)",all DLs,2 (6)
same,"Blood bilirubin increased, grade ≥ 2, Total (%)",all DLs,2 (6)
same,"Constipation, grade ≥ 2, Total (%)",all DLs,1 (3)
same,"Creatinine increased, grade ≥ 2, Total (%)",all DLs,5 (14)
same,"Dehydration, grade ≥ 2, Total (%)",all DLs,4 (11)
same,"Diarrhea, grade ≥ 2, Total (%)",all DLs,1 (3)
same,"Dry skin, grade ≥ 2, Total (%)",all DLs,1 (3)
same,"Edema - limbs, grade ≥ 2, Total (%)",all DLs,1 (3)
same,"Febrile Neutropenia, grade ≥ 2, Total (%)",all DLs,1 (3)
same,"GGT increased, grade ≥ 2, Total (%)",all DLs,6 (17)
same,"Hyperglycemia, grade ≥ 2, Total (%)",all DLs,1 (3)
same,"Hypoalbuminemia, grade ≥ 2, Total (%)",all DLs,1 (3)
same,"Hypokalemia, grade ≥ 2, Total (%)",all DLs,2 (6)
same,"Hypomagnesemia, grade ≥ 2, Total (%)",all DLs,2 (6)
same,"Hyponatremia, grade ≥ 2, Total (%)",all DLs,1 (3)
same,"Hypophosphatemia, grade ≥ 2, Total (%)",all DLs,6 (17)
same,"Hypothyroidism, grade ≥ 2, Total (%)",all DLs,1 (3)
same,"Hypoxia, grade ≥ 2, Total (%)",all DLs,1 (3)
same,"INR increased, grade ≥ 2, Total (%)",all DLs,1 (3)
same,"Infections and infestations - NOS, grade ≥ 2, Total (%)",all DLs,2 (6)
same,"Infusion site extravasation, grade ≥ 2, Total (%)",all DLs,1 (3)
same,"Leukopenia (White blood cell count decreased), grade ≥ 2, Total (%)",all DLs,5 (14)
same,"Nausea, grade ≥ 2, Total (%)",all DLs,6 (17)
same,"Neutropenia, grade ≥ 2, Total (%)",all DLs,5 (14)
same,"Pain - biopsy site, grade ≥ 2, Total (%)",all DLs,1 (3)
same,"Platelet count decreased, grade ≥ 2, Total (%)",all DLs,2 (6)
same,"Proteinuria, grade ≥ 2, Total (%)",all DLs,2 (6)
same,"Sudden death - NOS, Total (%)",all DLs,1 (3)
same,"Thrombophlebitis - superficial, grade ≥ 2, Total (%)",all DLs,1 (3)
same,"Urinary tract infection, grade ≥ 2, Total (%)",all DLs,1 (3)
same,"Vomiting, grade ≥ 2, Total (%)",all DLs,6 (17)
same,"Weight loss, grade ≥ 2, Total (%)",all DLs,4 (11)
same,"White blood cell count increased, grade ≥ 2, Total (%)",all DLs,1 (3)
same,"Anemia, grade ≥ 2, Total (%)",[1],13 (37) and 13 (36)
same,"Fatigue, grade ≥ 2, Total (%)",[1],8 (23) and 8 (22)
same,Patients requiring dose reductions,enrolled at DL6 (n = 6) or DL7 (n = 5),Eleven
same,"Alanine aminotransferase increased, patients","grade 2, DL1-DL5",1
same,"Alkaline phosphatase increased, patients","grade 2, DL1-DL5",1
same,"Anemia, patients","grade 2, DL1-DL5",2
same,"Edema - limbs, patients","grade 2, DL1-DL5",1
same,"GGT increased, patients","grade 2, DL1-DL5",1
same,"Hypophosphatemia, patients","grade 2, DL1-DL5",1
same,"Proteinuria, patients","grade 2, DL1-DL5",1
same,"Vomiting, patients","grade 2, DL1-DL5",1
same,"Lymphopenia (Lymphocyte count decreased), patients","grade 2, DL1-DL5 (n = 7)",1
same,"Alanine aminotransferase increased, patients","grade 2, DL6",1
same,"Alkaline phosphatase increased, patients","grade 2, DL6",1
same,"Anemia, patients","grade 2, DL6",4
same,"Anorexia, patients","grade 2, DL6",1
same,"Aspartate aminotransferase increased, patients","grade 2, DL6",1
same,"Blood bilirubin increased, patients","grade 2, DL6",1
same,"Constipation, patients","grade 2, DL6",1
same,"Creatinine increased, patients","grade 2, DL6",3
same,"Dehydration, patients","grade 2, DL6",1
same,"Diarrhea, patients","grade 2, DL6",1
same,"Dry skin, patients","grade 2, DL6",1
same,"Fatigue, patients","grade 2, DL6",6
same,"GGT increased, patients","grade 2, DL6",3
same,"Hyperglycemia, patients","grade 2, DL6",1
same,"Hypoalbuminemia, patients","grade 2, DL6",1
same,"Hypomagnesemia, patients","grade 2, DL6",1
same,"Hyponatremia, patients","grade 2, DL6",1
same,"Hypophosphatemia, patients","grade 2, DL6",4
same,"Hypothyroidism, patients","grade 2, DL6",1
same,"Infections and infestations - NOS, patients","grade 2, DL6",2
same,"Infusion site extravasation, patients","grade 2, DL6",1
same,"Leukopenia (White blood cell count decreased), patients","grade 2, DL6",3
same,"Nausea, patients","grade 2, DL6",3
same,"Neutropenia, patients","grade 2, DL6",3
same,"Pain - biopsy site, patients","grade 2, DL6",1
same,"Platelet count decreased, patients","grade 2, DL6",1
same,"Proteinuria, patients","grade 2, DL6",1
same,"Thrombophlebitis - superficial, patients","grade 2, DL6",1
same,"Urinary tract infection, patients","grade 2, DL6",1
same,"Vomiting, patients","grade 2, DL6",4
same,"Weight loss, patients","grade 2, DL6",4
same,"White blood cell count increased, patients","grade 2, DL6",1
same,"Lymphopenia (Lymphocyte count decreased), patients","grade 2, DL6 (n = 18; suppl. n=17)",1
same,"Alkaline phosphatase increased, patients","grade 2, DL7",1
same,"Anemia, patients","grade 2, DL7",7
same,"Anorexia, patients","grade 2, DL7",1
same,"Blood bilirubin increased, patients","grade 2, DL7",1
same,"Creatinine increased, patients","grade 2, DL7",2
same,"Dehydration, patients","grade 2, DL7",1
same,"Fatigue, patients","grade 2, DL7",2
same,"Hypomagnesemia, patients","grade 2, DL7",1
same,"Hypophosphatemia, patients","grade 2, DL7",1
same,"INR increased, patients","grade 2, DL7",1
same,"Leukopenia (White blood cell count decreased), patients","grade 2, DL7",1
same,"Nausea, patients","grade 2, DL7",1
same,"Platelet count decreased, patients","grade 2, DL7",1
same,"Vomiting, patients","grade 2, DL7",1
same,"Lymphopenia (Lymphocyte count decreased), patients","grade 2, DL7 (n = 11)",4
same,"Alanine aminotransferase increased, patients","grade 2, all DLs (n=35)",2
same,"Alkaline phosphatase increased, patients","grade 2, all DLs (n=35)",3
same,"Anemia, patients","grade 2, all DLs (n=35)",13
same,"Anorexia, patients","grade 2, all DLs (n=35)",2
same,"Aspartate aminotransferase increased, patients","grade 2, all DLs (n=35)",1
same,"Blood bilirubin increased, patients","grade 2, all DLs (n=35)",2
same,"Constipation, patients","grade 2, all DLs (n=35)",1
same,"Creatinine increased, patients","grade 2, all DLs (n=35)",5
same,"Dehydration, patients","grade 2, all DLs (n=35)",2
same,"Diarrhea, patients","grade 2, all DLs (n=35)",1
same,"Dry skin, patients","grade 2, all DLs (n=35)",1
same,"Edema - limbs, patients","grade 2, all DLs (n=35)",1
same,"Fatigue, patients","grade 2, all DLs (n=35)",8
same,"GGT increased, patients","grade 2, all DLs (n=35)",4
same,"Hyperglycemia, patients","grade 2, all DLs (n=35)",1
same,"Hypoalbuminemia, patients","grade 2, all DLs (n=35)",1
same,"Hypomagnesemia, patients","grade 2, all DLs (n=35)",2
same,"Hyponatremia, patients","grade 2, all DLs (n=35)",1
same,"Hypophosphatemia, patients","grade 2, all DLs (n=35)",6
same,"Hypothyroidism, patients","grade 2, all DLs (n=35)",1
same,"INR increased, patients","grade 2, all DLs (n=35)",1
same,"Infections and infestations - NOS, patients","grade 2, all DLs (n=35)",2
same,"Infusion site extravasation, patients","grade 2, all DLs (n=35)",1
same,"Lymphocyte count decreased, patients","grade 2, all DLs (n=35)",6
same,"Nausea, patients","grade 2, all DLs (n=35)",4
same,"Neutropenia, patients","grade 2, all DLs (n=35)",3
same,"Platelet count decreased, patients","grade 2, all DLs (n=35)",3
same,"Proteinuria, patients","grade 2, all DLs (n=35)",2
same,"Thrombophlebitis - superficial, patients","grade 2, all DLs (n=35)",1
same,"Urinary tract infection, patients","grade 2, all DLs (n=35)",1
same,"Vomiting, patients","grade 2, all DLs (n=35)",6
same,"Weight loss, patients","grade 2, all DLs (n=35)",4
same,"White blood cell count decreased, patients","grade 2, all DLs (n=35)",4
same,"White blood cell count increased, patients","grade 2, all DLs (n=35)",1
same,"Dehydration, patients","grade 3, DL6",1
same,"Febrile Neutropenia, patients","grade 3, DL6",1
same,"GGT increased, patients","grade 3, DL6",1
same,"Hypokalemia, patients","grade 3, DL6",1
same,"Hypoxia, patients","grade 3, DL6",1
same,"Lymphopenia (Lymphocyte count decreased), patients","grade 3, DL6",5
same,"Nausea, patients","grade 3, DL6",1
same,"Neutropenia, patients","grade 3, DL6",1
same,"Aspartate aminotransferase increased, patients","grade 3, DL7",1
same,"Dehydration, patients","grade 3, DL7",1
same,"GGT increased, patients","grade 3, DL7",1
same,"Hypokalemia, patients","grade 3, DL7",1
same,"Lymphopenia (Lymphocyte count decreased), patients","grade 3, DL7",2
same,"Nausea, patients","grade 3, DL7",1
same,"Aspartate aminotransferase increased, patients","grade 3, all DLs (n=35)",1
same,"Dehydration, patients","grade 3, all DLs (n=35)",1
same,"Febrile Neutropenia, patients","grade 3, all DLs (n=35)",1
same,"GGT increased, patients","grade 3, all DLs (n=35)",2
same,"Hypokalemia, patients","grade 3, all DLs (n=35)",2
same,"Hypoxia, patients","grade 3, all DLs (n=35)",1
same,"Lymphocyte count decreased, patients","grade 3, all DLs (n=35)",7
same,"Nausea, patients","grade 3, all DLs (n=35)",2
same,"Neutropenia, patients","grade 3, all DLs (n=35)",1
same,"Leukopenia (White blood cell count decreased), patients","grade 4, DL6",1
same,"Lymphopenia (Lymphocyte count decreased), patients","grade 4, DL6",1
same,"Neutropenia, patients","grade 4, DL6",1
same,"Lymphocyte count decreased, patients","grade 4, all DLs (n=35)",1
same,"Neutropenia, patients","grade 4, all DLs (n=35)",1
same,"White blood cell count decreased, patients","grade 4, all DLs (n=35)",1
same,"Sudden death - NOS, patients","grade 5, DL7",1
same,Death considered possibly related to treatment,"one patient, DL7",grade 5 sudden death – NOS; also recorded: died of a pulmonary embolism
